Measurements from patent publication US9585958B2, “Compositions and methods for reducing lactate levels” (The Regents of the University of California, priority 2013, dated 2017).

Experiments:
[1] = Log D measurements (octanol/PBS, 13C NMR); assay type: physicochemical; conditions: octanol / 1×PBS pH 7.4, 16 h shaking
Description: 45 μmoles of ABA and 3-^13C-sodium L-lactate dissolved in 500 μL of 1×PBS at pH 7.4 were added to 500 μL of octanol and vigorously shaken for 16 h and then centrifuged for 2 min at 10,000×Gs to extract PBS. A 200 μL of D2O along with 188.7 μmoles (10 μL of 99.8%) of acetonitrile was added to the PBS and a carbon NMR was performed with 16 scans. The area under the curve for the NMR traces obtained was calculated using Mest-ReC software. Similarly, a carbon NMR was performed with 16 scans on a solution containing 45 μmoles of ABA, 45 μmoles of 3-^13C-sodium L-lactate dissolved in 500 μL of 1×PBS at pH 7.4 along with 200 μL of D2O and with 188.7 μmoles (10 μL of 99.8%) of acetonitrile. Area under the curve for the NMR traces obtained was calculated using Mest-ReC software. Acetonitrile peak at δ=1.47 was used as reference.
Furthermore, as controls, 3-^13C-sodium L-lactate dissolved in 500 μL of 1×PBS at pH 7.4 was added to 500 μL of octanol and vigorously shaken for 16 h and then centrifuged for 2 min at 10,000×Gs to extract PBS. A 200 μL of D2O along with 188.7 μmoles (10 μL of 99.8%) of acetonitrile was added to the PBS and a carbon NMR was performed with 16 scans. The area under the curve for the NMR traces obtained was calculated using Mest-ReC software. […] Area under the curve for the NMR traces obtained was calculated using Mest-ReC software.

[2] = Permeation through DMPC liposomes (lactate assay kit); assay type: in vitro ADME; conditions: 112 mM
Description: It was investigated whether ABA can enhance lactate membrane permeability. Liposomes were generated from 1,2-dimyristoyl-sn-glycero-3-phosphocholine (DMPC), by evaporating 400 μL of 1 mg/mL of DMPC in chloroform in a 100 mL glass flask to completion; and the lipids were re-suspended in 400 μL PBS, thereby forming the liposomes. 50 μL of the liposomes and 50 μL of 112 mM ABA premixed with lactate were then added to the wells of the 96-well plate, and lactate assay kit was performed, according to the manufacturer's instructions. As controls, 50 μL of PBS and 50 μL of 112 mM ABA premixed with lactate were then added to the wells of the 96-well plate and lactate assay kit was performed, according to the manufacturer's instructions. Furthermore, for determining the permeability of lactate through the liposomes, 50 μL of the liposomes and 50 μL of 112 mM lactate were added to the wells of the 96-well plate, and lactate assay kit was performed, according to the manufacturer's instructions. As controls, 50 μL of PBS and 50 μL of 112 mM lactate were added to the wells of the 96-well plate and lactate assay kit was performed, according to the manufacturer's instructions.

## C[C@H](O)C(=O)[O-].[Na+] [lactate, sodium L-lactate]
[1]
  Log D: −2
[2]
  permeation through liposomes: did not permeate through the liposomes
